Columns and labels:
[1] = tested on: recombinant NL4-3 virus (Renilla luciferase) in MT-2 cells; assay: HIV cell culture assay (antiviral activity, luciferase readout); type: cell-based; settings: Renilla, NL43
Outline: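 MT-2 cells were infected with recombinant NL4-3 virus carrying Renilla luciferase in place of part of nef. Cells were cultured 4–5 days with serially diluted compound, and luciferase was measured with a live-cell substrate. EC50 was calculated from the median effect equation.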

[2] = Compound cytotoxicity, XTT-based colorimetric assay; type: cell-based; settings: human; uninfected MT2 cells, day 4, XTT
Outline: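 Run under the antiviral-assay protocol but without virus. Viability was read on day 4 and CC50 values were derived from the readout.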

Cc1cc(C)c(C(F)(F)F)c(-c2ccc3c(=O)n(-c4ccc(Cl)c5c(NS(C)(=O)=O)nn(C)c45)c([C@H](Cc4cc(F)cc(F)c4)NC(=O)Cn4nc(C(F)F)c5c4C(F)(F)[C@@H]4C[C@H]54)nc3c2)n1 (atropisomer, axis not shown; (P)) [Example 52, N—((S)-1-((3P)-3-(4-chloro-1-methyl-3-(methylsulfonamido)-1H-indazol-7-yl)-7-(4,6-dimethyl-3-(trifluoromethyl)pyridin-2-yl)-4-oxo-3,4-dihydroquinazolin-2-yl)-2-(3,5-difluorophenyl)ethyl)-2-((3bS,4aR)-3-(difluoromethyl)-5,5-difluoro-3b,4,4a,5-tetrahydro-1H-cyclopropa[3,4]cyclopenta[1,2-c]pyrazol-1-yl)acetamide]
EC50 [1]: 0.48 nM | CC50 at 4 days [2]: > 500 nM

Cc1ccc(-c2ccc3c(=O)n(-c4ccc(Cl)c5c(NS(C)(=O)=O)nn(CC(F)F)c45)c([C@H](Cc4cc(F)cc(F)c4)NC(=O)Cn4nc(C(F)F)c5c4C(F)(F)[C@@H]4C[C@H]54)nc3c2)nn1 (atropisomer, axis not shown) [Example 134, N-[(1S)-1-{3-[4-chloro-1-(2,2-difluoroethyl)-3-methanesulfonamido-1H-indazol-7-yl]-7-(6-methylpyridazin-3-yl)-4-oxo-3,4-dihydroquinazolin-2-yl}-2-(3,5-difluorophenyl)ethyl]-2-[(2S,4R)-9-(difluoromethyl)-5,5-difluoro-7,8-diazatricyclo[4.3.0.0^2,^4]nona-1(6),8-dien-7-yl]acetamide]
EC50 [1]: 0.032 nM | CC50 at 4 days [2]: > 500 nM

Cc1nc(-c2ccc3c(=O)n(-c4ccc(Cl)c5c(NS(C)(=O)=O)nn(C)c45)c([C@H](Cc4cc(F)cc(F)c4)NC(=O)Cn4nc(C(F)F)c5c4C(F)(F)[C@@H]4C[C@H]54)nc3c2)cc(C(F)(F)F)n1 (atropisomer, axis not shown; (P)) [Example 63, N—((S)-1-((3P)-3-(4-chloro-1-methyl-3-(methylsulfonamido)-1H-indazol-7-yl)-7-(2-methyl-6-(trifluoromethyl)pyrimidin-4-yl)-4-oxo-3,4-dihydroquinazolin-2-yl)-2-(3,5-difluorophenyl)ethyl)-2-((3bS,4aR)-3-(difluoromethyl)-5,5-difluoro-3b,4,4a,5-tetrahydro-1H-cyclopropa[3,4]cyclopenta[1,2-c]pyrazol-1-yl)acetamide]
EC50 [1]: 0.33 nM | CC50 at 4 days [2]: > 500 nM

COCc1nc(C)cc(-c2ccc3c(=O)n(-c4ccc(Cl)c5c(NS(C)(=O)=O)nn(C)c45)c([C@H](Cc4cc(F)cc(F)c4)NC(=O)Cn4nc(C(F)F)c5c4C(F)(F)[C@@H]4C[C@H]54)nc3c2)n1 (atropisomer, axis not shown; (P)) [Example 75, N—((S)-1-((3P)-3-(4-chloro-1-methyl-3-(methylsulfonamido)-1H-indazol-7-yl)-7-(2-(methoxymethyl)-6-methylpyrimidin-4-yl)-4-oxo-3,4-dihydroquinazolin-2-yl)-2-(3,5-difluorophenyl)ethyl)-2-((3bS,4aR)-3-(difluoromethyl)-5,5-difluoro-3b,4,4a,5-tetrahydro-1H-cyclopropa[3,4]cyclopenta[1,2-c]pyrazol-1-yl)acetamide]
EC50 [1]: 0.077 nM | CC50 at 4 days [2]: > 500 nM

Cc1cc(-c2ccc3c(=O)n(-c4ccc(Cl)c5c(NS(C)(=O)=O)nn(CC(F)F)c45)c([C@H](Cc4cc(F)cc(F)c4)NC(=O)Cn4nc(C(F)F)c5c4C(F)(F)[C@@H]4C[C@H]54)nc3c2)nc(C)n1 (atropisomer, axis not shown) [Example 131, N-[(1S)-1-{3-[4-chloro-1-(2,2-difluoroethyl)-3-methanesulfonamido-1H-indazol-7-yl]-7-(2,6-dimethylpyrimidin-4-y1)-4-oxo-3,4-dihydroquinazolin-2-y1}-2-(3,5-difluorophenyl)ethyl]-2-[(2S,4R)-9-(difluoromethyl)-5,5-difluoro-7,8-diazatricyclo[4.3.0.0^2,^4]nona-1(6),8-dien-7-yl]acetamide]
EC50 [1]: 0.038 nM | CC50 at 4 days [2]: > 500 nM

Cn1nc(NS(C)(=O)=O)c2c(Cl)ccc(-n3c([C@H](Cc4cc(F)cc(F)c4)NC(=O)Cn4nc(C(F)F)c5c4C(F)(F)[C@@H]4C[C@H]54)nc4cc(-c5ccccc5OC(F)F)ccc4c3=O)c21 (atropisomer, axis not shown; (P)) [Example 25, N—((S)-1-((3P)-3-(4-chloro-1-methyl-3-(methylsulfonamido)-1H-indazol-7-yl)-7-(2-(difluoromethoxy)phenyl)-4-oxo-3,4-dihydroquinazolin-2-yl)-2-(3,5-difluorophenyl)ethyl)-2-((3bS,4aR)-3-(difluoromethyl)-5,5-difluoro-3b,4,4a,5-tetrahydro-1H-cyclopropa[3,4]cyclopenta[1,2-c]pyrazol-1-yl)acetamide]
EC50 [1]: 0.85 nM | CC50 at 4 days [2]: > 500 nM

Cc1cc(C(F)(F)F)cc(-c2ccc3c(=O)n(-c4ccc(Cl)c5c(NS(C)(=O)=O)nn(C)c45)c([C@H](Cc4cc(F)cc(F)c4)NC(=O)Cn4nc(C(F)F)c5c4C(F)(F)[C@@H]4C[C@H]54)nc3c2)n1 (atropisomer, axis not shown; (P)) [Example 48, N—((S)-1-((3P)-3-(4-chloro-1-methyl-3-(methylsulfonamido)-1H-indazol-7-yl)-7-(6-methyl-4-(trifluoromethyl)pyridin-2-yl)-4-oxo-3,4-dihydroquinazolin-2-yl)-2-(3,5-difluorophenyl)ethyl)-2-((3bS,4aR)-3-(difluoromethyl)-5,5-difluoro-3b,4,4a,5-tetrahydro-1H-cyclopropa[3,4]cyclopenta[1,2-c]pyrazol-1-yl)acetamide]
EC50 [1]: 0.5 nM | CC50 at 4 days [2]: > 500 nM

O=C(Cn1nc(C(F)F)c2c1C(F)(F)[C@@H]1C[C@H]21)N[C@@H](Cc1cc(F)cc(F)c1)c1nc2cc(-c3nccc(C(F)F)n3)ccc2c(=O)n1-c1ccc(Cl)c2c(NS(=O)(=O)C3CC3)nn(CC(F)F)c12 (atropisomer, axis not shown; (P)) [Example 86, N—((S)-1-((3P)-3-(4-chloro-3-(cyclopropanesulfonamido)-1-(2,2-difluoroethyl)-1H-indazol-7-yl)-7-(4-(difluoromethyl)pyrimidin-2-yl)-4-oxo-3,4-dihydroquinazolin-2-yl)-2-(3,5-difluorophenyl)ethyl)-2-((3bS,4aR)-3-(difluoromethyl)-5,5-difluoro-3b,4,4a,5-tetrahydro-1H-cyclopropa[3,4]cyclopenta[1,2-c]pyrazol-1-yl)acetamide]
EC50 [1]: 0.078 nM | CC50 at 4 days [2]: > 500 nM

COc1ccc(-c2ccc3c(=O)n(-c4ccc(Cl)c5c(NS(C)(=O)=O)nn(C)c45)c([C@H](Cc4cc(F)cc(F)c4)NC(=O)Cn4nc(C(F)F)c5c4C(F)(F)[C@@H]4C[C@H]54)nc3c2)nc1 (atropisomer, axis not shown; (P)) [Example 45, N—((S)-1-((3P)-3-(4-chloro-1-methyl-3-(methylsulfonamido)-1H-indazol-7-yl)-7-(5-methoxypyridin-2-yl)-4-oxo-3,4-dihydroquinazolin-2-yl)-2-(3,5-difluorophenyl)ethyl)-2-((3bS,4aR)-3-(difluoromethyl)-5,5-difluoro-3b,4,4a,5-tetrahydro-1H-cyclopropa[3,4]cyclopenta[1,2-c]pyrazol-1-yl)acetamide]
EC50 [1]: 0.1 nM | CC50 at 4 days [2]: > 500 nM

Cc1ncncc1-c1ccc2c(=O)n(-c3ccc(Cl)c4c(NS(C)(=O)=O)nn(C)c34)c([C@H](Cc3cc(F)cc(F)c3)NC(=O)Cn3nc(C(F)F)c4c3C(F)(F)[C@@H]3C[C@H]43)nc2c1 (atropisomer, axis not shown; (P)) [Example 42, N—((S)-1-((3P)-3-(4-chloro-1-methyl-3-(methylsulfonamido)-1H-indazol-7-yl)-7-(4-methylpyrimidin-5-yl)-4-oxo-3,4-dihydroquinazolin-2-yl)-2-(3,5-difluorophenyl)ethyl)-2-((3bS,4aR)-3-(difluoromethyl)-5,5-difluoro-3b,4,4a,5-tetrahydro-1H-cyclopropa[3,4]cyclopenta[1,2-c]pyrazol-1-yl)acetamide]
EC50 [1]: 0.074 nM | CC50 at 4 days [2]: > 500 nM

Cn1nc(NS(C)(=O)=O)c2c(Cl)ccc(-n3c([C@H](Cc4cc(F)cc(F)c4)NC(=O)Cn4nc(C(F)F)c5c4C(F)(F)[C@@H]4C[C@H]54)nc4cc(-c5ccnc(C(C)(C)C)n5)ccc4c3=O)c21 (atropisomer, axis not shown; (P)) [Example 72, N—((S)-1-(7-(2-(tert-butyl)pyrimidin-4-yl)-(3P)-3-(4-chloro-1-methyl-3-(methylsulfonamido)-1H-indazol-7-yl)-4-oxo-3,4-dihydroquinazolin-2-yl)-2-(3,5-difluorophenyl)ethyl)-2-((3bS,4aR)-3-(difluoromethyl)-5,5-difluoro-3b,4,4a,5-tetrahydro-1H-cyclopropa[3,4]cyclopenta[1,2-c]pyrazol-1-yl)acetamide]
EC50 [1]: 0.43 nM | CC50 at 4 days [2]: > 500 nM

CCC(C)c1nccc(-c2ccc3c(=O)n(-c4ccc(Cl)c5c(NS(C)(=O)=O)nn(C)c45)c([C@H](Cc4cc(F)cc(F)c4)NC(=O)Cn4nc(C(F)F)c5c4C(F)(F)[C@@H]4C[C@H]54)nc3c2)n1 (stereo partly drawn) [Example 70, N-((1S)-1-(7-(2-(sec-butyl)pyrimidin-4-yl)-(3P)-3-(4-chloro-1-methyl-3-(methylsulfonamido)-1H-indazol-7-yl)-4-oxo-3,4-dihydroquinazolin-2-yl)-2-(3,5-difluorophenyl)ethyl)-2-((3bS,4aR)-3-(difluoromethyl)-5,5-difluoro-3b,4,4a,5-tetrahydro-1H-cyclopropa[3,4]cyclopenta[1,2-c]pyrazol-1-yl)acetamide]
EC50 [1]: 0.26 nM | CC50 at 4 days [2]: > 500 nM
